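Following 48 hours of exposure in 96-well plates, responses at five concentrations were used to interpolate endpoints linearly. GI50: concentration for 50% inhibition of growth.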 Activity calls are given as the source filed them. Cut-off read from the data, not from the text of the source: active = GI50 up to about 1.1 µM and inactive = higher.
How the values were obtained:
Assay in all cases: NCI anticancer screen, dose series, 48 h
[1] = tested on: HL-60
[2] = tested on: 786-0
[3] = tested on: K562
[4] = tested on: COLO 205
[5] = tested on: SK-MEL-5
[6] = tested on: SW-620
[7] = tested on: OVCAR-8
[8] = tested on: HCC 2998
[9] = tested on: CAKI-1
[10] = tested on: SF-295
[11] = tested on: OVCAR-5
[12] = tested on: CCRF-CEM
[13] = tested on: EKVX
[14] = tested on: MOLT-4
[15] = tested on: A498
[16] = tested on: HT-29
[17] = tested on: U-251
[18] = tested on: SF-268

| Compound | GI50 [1] | GI50 [2] | GI50 [3] | GI50 [4] | GI50 [5] | GI50 [6] | GI50 [7] | GI50 [8] | GI50 [9] | GI50 [10] | GI50 [11] | GI50 [12] | GI50 [13] | GI50 [14] | GI50 [15] | GI50 [16] | GI50 [17] | GI50 [18] |
| --- | --- | --- | --- | --- | --- | --- | --- | --- | --- | --- | --- | --- | --- | --- | --- | --- | --- | --- |
| COc1cc(/C=C(\C#N)C(=O)c2ccccc2)ccc1OCc1ccccc1 | > 100 µM (inactive) | > 100 µM (inactive) | > 100 µM (inactive) | > 100 µM (inactive) | > 100 µM (inactive) | > 100 µM (inactive) | > 100 µM (inactive) | > 100 µM (inactive) | > 100 µM (inactive) | > 100 µM (inactive) | > 100 µM (inactive) | > 100 µM (inactive) | > 100 µM (inactive) | > 100 µM (inactive) |  |  |  |  |
| CC(=O)c1cccc(N2COC(C)(C)c3nc4ccccc4n3C2)c1 | > 100 µM (inactive) | > 100 µM (inactive) | > 100 µM (inactive) | > 100 µM (inactive) |  | > 100 µM (inactive) | > 100 µM (inactive) | > 100 µM (inactive) |  | > 100 µM (inactive) |  | > 100 µM (inactive) | > 100 µM (inactive) | > 100 µM (inactive) | > 100 µM (inactive) | > 100 µM (inactive) | > 100 µM (inactive) | > 100 µM (inactive) |
| N#CC(C#N)C(c1ccccc1)c1ccccc1 | > 100 µM (inactive) | > 100 µM (inactive) | 91 µM (inactive) | > 100 µM (inactive) | > 100 µM (inactive) | > 100 µM (inactive) | > 100 µM (inactive) | > 100 µM (inactive) | > 100 µM (inactive) | > 100 µM (inactive) | > 100 µM (inactive) | > 100 µM (inactive) |  | 82 µM (inactive) | > 100 µM (inactive) |  | > 100 µM (inactive) | > 100 µM (inactive) |
| CN(C)CC/C(=N\Nc1ccc(Cl)cc1)c1ccccc1 | 0.369 µM (active) | 1.26 µM (inactive) | 0.327 µM (active) | 1.75 µM (inactive) | 1.7 µM (inactive) | 0.431 µM (active) | 2.24 µM (inactive) |  |  | 0.374 µM (active) | 1.24 µM (inactive) | 0.417 µM (active) | 1.36 µM (inactive) | 0.403 µM (active) | 3.64 µM (inactive) | 1.28 µM (inactive) | 0.513 µM (active) | 0.566 µM (active) |
| CC(C)[C@@H](COC(C)(C)C)/N=C/N1CCc2c([nH]c3ccccc23)C1 | > 100 µM (inactive) | > 100 µM (inactive) | > 100 µM (inactive) | > 100 µM (inactive) | > 100 µM (inactive) | > 100 µM (inactive) | > 100 µM (inactive) | 80 µM (inactive) |  | > 100 µM (inactive) | > 100 µM (inactive) | > 100 µM (inactive) | > 100 µM (inactive) | > 100 µM (inactive) | > 100 µM (inactive) | > 100 µM (inactive) | > 100 µM (inactive) | > 100 µM (inactive) |
| CCCCN(CCCC)CC(C(C)=O)C(c1ccccc1)c1c(O)c2ccccc2oc1=O (centres undefined) | > 100 µM (inactive) | > 100 µM (inactive) | > 100 µM (inactive) | > 100 µM (inactive) | > 100 µM (inactive) | > 100 µM (inactive) | > 100 µM (inactive) | > 100 µM (inactive) | > 100 µM (inactive) | > 100 µM (inactive) | > 100 µM (inactive) | > 100 µM (inactive) | > 100 µM (inactive) | > 100 µM (inactive) |  | > 100 µM (inactive) | > 100 µM (inactive) | > 100 µM (inactive) |
| CCN(CC)C(=O)COc1ccc(Br)cc1Br | 83.9 µM (inactive) | > 100 µM (inactive) | > 100 µM (inactive) | > 100 µM (inactive) | > 100 µM (inactive) | > 100 µM (inactive) |  | > 100 µM (inactive) | > 100 µM (inactive) | > 100 µM (inactive) | > 100 µM (inactive) | > 100 µM (inactive) | 7.91 µM (inactive) | > 100 µM (inactive) | > 100 µM (inactive) | > 100 µM (inactive) | > 100 µM (inactive) | > 100 µM (inactive) |
| CS/C(=N/C#N)NCCc1c[nH]c2ccccc12 | 55.2 µM (inactive) | 45.6 µM (inactive) | 67 µM (inactive) | > 100 µM (inactive) | 76 µM (inactive) | > 100 µM (inactive) | > 100 µM (inactive) | > 100 µM (inactive) |  | > 100 µM (inactive) | > 100 µM (inactive) | 48.2 µM (inactive) | 18 µM (inactive) | 80.7 µM (inactive) |  | 98.4 µM (inactive) | > 100 µM (inactive) | > 100 µM (inactive) |
| Cc1ccc(S(=O)(=O)SCc2ccccc2CSS(=O)(=O)c2ccc(C)cc2)cc1 | 12.1 µM (inactive) | 18.2 µM (inactive) | 15.7 µM (inactive) | 17 µM (inactive) | 59.4 µM (inactive) | 17.1 µM (inactive) | 24.5 µM (inactive) | 75.2 µM (inactive) | 22.9 µM (inactive) | 79.8 µM (inactive) | > 10 µM (inactive) |  | 44.4 µM (inactive) | 16 µM (inactive) | 91.2 µM (inactive) | 22.7 µM (inactive) | 28.6 µM (inactive) | 36.6 µM (inactive) |
| O=C(N/C(=C\c1ccccc1O)c1nc2ccccc2[nH]1)c1ccccc1 |  | 48.1 µM (inactive) | > 100 µM (inactive) | > 100 µM (inactive) | 95.7 µM (inactive) | > 100 µM (inactive) | 66.1 µM (inactive) | > 100 µM (inactive) | > 100 µM (inactive) |  | > 100 µM (inactive) | > 100 µM (inactive) | 37.8 µM (inactive) | > 100 µM (inactive) | 62.4 µM (inactive) | > 100 µM (inactive) | > 100 µM (inactive) | 37.3 µM (inactive) |
| CC(=O)C1C(c2ccc(N(C)C)cc2)c2cc3c(cc2OC1(C)O)OCO3 (centres undefined) | 24.3 µM (inactive) | 36.7 µM (inactive) | 24 µM (inactive) | 41.1 µM (inactive) | 30.8 µM (inactive) | 40.2 µM (inactive) | 73.5 µM (inactive) |  | 20.5 µM (inactive) | 28.7 µM (inactive) |  | 32.5 µM (inactive) | 77.6 µM (inactive) | 32.1 µM (inactive) |  | 23.2 µM (inactive) | 52.7 µM (inactive) |  |
| N#CCc1ccc(C(C#N)/C(CCCC(=O)Nc2cccc([N+](=O)[O-])c2)=N/NC(N)=S)cc1 (centres undefined) | > 100 µM (inactive) | > 100 µM (inactive) | 81.7 µM (inactive) | > 100 µM (inactive) | > 100 µM (inactive) | > 100 µM (inactive) |  | > 100 µM (inactive) | > 100 µM (inactive) | > 100 µM (inactive) | > 100 µM (inactive) | 51.6 µM (inactive) | 36.6 µM (inactive) | 70.3 µM (inactive) | > 100 µM (inactive) | > 100 µM (inactive) | > 100 µM (inactive) | > 100 µM (inactive) |
| CC(C)(c1ccc(C=O)o1)c1ccc(C(C)(C)c2ccc(C=O)o2)o1 | > 100 µM (inactive) | > 100 µM (inactive) | > 100 µM (inactive) | > 100 µM (inactive) |  | > 100 µM (inactive) | > 100 µM (inactive) | > 100 µM (inactive) | > 100 µM (inactive) | > 100 µM (inactive) | > 100 µM (inactive) | > 100 µM (inactive) | > 100 µM (inactive) | > 100 µM (inactive) | > 100 µM (inactive) | > 100 µM (inactive) | > 100 µM (inactive) | > 100 µM (inactive) |
| CC1CC(c2cccc3c2OCO3)=Nc2ccccc2S1 (centres undefined) | > 100 µM (inactive) | > 100 µM (inactive) | > 100 µM (inactive) | > 100 µM (inactive) | > 100 µM (inactive) | > 100 µM (inactive) | > 100 µM (inactive) | > 100 µM (inactive) | > 100 µM (inactive) | > 100 µM (inactive) | > 100 µM (inactive) | > 100 µM (inactive) | > 100 µM (inactive) | > 100 µM (inactive) | > 100 µM (inactive) | > 100 µM (inactive) |  | > 100 µM (inactive) |
| O=C(NC(=O)c1cn(CCN(CCO)C(=O)NCCCCCCNC(=O)N(CCO)CCn2cc(C(=O)NC(=O)OCc3ccccc3)c(=O)[nH]c2=O)c(=O)[nH]c1=O)OCc1ccccc1 | > 100 µM (inactive) | > 100 µM (inactive) | > 100 µM (inactive) | > 100 µM (inactive) | > 100 µM (inactive) | > 100 µM (inactive) | > 100 µM (inactive) |  | > 100 µM (inactive) | > 100 µM (inactive) | > 100 µM (inactive) | > 100 µM (inactive) | > 100 µM (inactive) | > 100 µM (inactive) |  | > 100 µM (inactive) | > 100 µM (inactive) |  |
| O=S(O)CCCSSc1ccccc1 |  | 66.8 µM (inactive) | 38.1 µM (inactive) | 43.4 µM (inactive) | 22.5 µM (inactive) | 47.3 µM (inactive) | 26.5 µM (inactive) | 76.9 µM (inactive) | 27 µM (inactive) | 53.2 µM (inactive) | > 100 µM (inactive) | 7.67 µM (inactive) | 36.1 µM (inactive) | 17.5 µM (inactive) | 51.9 µM (inactive) | 46.9 µM (inactive) | 26.4 µM (inactive) | 18.7 µM (inactive) |
| CCCn1c(SCC)c2cc3cc4ccccc4cc3cc2c1-c1nc(F)nc(F)n1 | > 100 µM (inactive) | > 100 µM (inactive) | > 100 µM (inactive) | > 100 µM (inactive) | > 100 µM (inactive) | > 100 µM (inactive) | > 100 µM (inactive) | > 100 µM (inactive) | > 100 µM (inactive) | > 100 µM (inactive) | > 100 µM (inactive) | > 100 µM (inactive) | > 100 µM (inactive) | > 100 µM (inactive) |  | > 100 µM (inactive) |  | > 100 µM (inactive) |

Source: ChEMBL document CHEMBL1201862, “PubChem BioAssay data set” (2004)
